Test results: patent US20080051315A1 (priority 2003, published 2008)

Legend:
[1] = target: GRPR (Mus musculus, UniProt P21729); assay type: cell-based
[2] = tested on: GABAA receptors; assay: block of sIPSCs in pyramidal neurons of the lateral amygdala; assay type: cell-based, mouse; settings: picrotoxin 50 uM; n=10; holding potential -70 mV
Procedure: Amygdala slices (250-300 um) were prepared from 3-5 week old control and GRPR knockout mice (littermates) with a vibratome. Slices were continuously superfused in solution containing (in mM): 119 NaCl, 2.5 KCl, 2.5 CaCl2,1.0 MgSO4, 1.25 NaH2PO4, 26.0 NaHCO3, 10 glucose, and equilibrated with 95% O2 and 5% CO2 [pH 7.3-7.4] at room temperature. Whole-cell recordings of evoked compound EPSCs or spontaneous GABA-mediated IPSCs were obtained from pyramidal cells in the lateral amygdala under visual guidance (DIG/ infrared optics) with an EPC-9 amplifier and Pulse v8.09 software (HEKA Elektronik). […] Series resistance was monitored throughout experiment and was in a range of […]. […] The EPSC amplitudes were measured as the difference between the mean current during a prestimulus baseline and the mean current over a 2 ms-window at the peak of the response. […]
The spontaneous IPSCs were recorded on videotape for off line analysis in the presence of 20 uM CNQX. Data were analyzed with the Mini Analysis Program v5.2.4 (Synaptosoft Inc., Decatur, Ga.; Bolshakov et al., 2000).
We recorded spontaneous inhibitory postsynaptic currents (sIPSCs) in the pyramidal neurons having blocked the AM PA (a-amino-3-hydroxy-5-methyl-4-isoxazolepropionic acid) receptor-mediated responses (FIG. 2) with CNQX (6-cyano-7-nitroquinoxaline-2,3-dione, 20 uM).

[3] = tested on: pyramidal neurons in slices from GRPR knockout mice; assay type: cell-based, mouse

Chain of GRPR (P21729 whole entry): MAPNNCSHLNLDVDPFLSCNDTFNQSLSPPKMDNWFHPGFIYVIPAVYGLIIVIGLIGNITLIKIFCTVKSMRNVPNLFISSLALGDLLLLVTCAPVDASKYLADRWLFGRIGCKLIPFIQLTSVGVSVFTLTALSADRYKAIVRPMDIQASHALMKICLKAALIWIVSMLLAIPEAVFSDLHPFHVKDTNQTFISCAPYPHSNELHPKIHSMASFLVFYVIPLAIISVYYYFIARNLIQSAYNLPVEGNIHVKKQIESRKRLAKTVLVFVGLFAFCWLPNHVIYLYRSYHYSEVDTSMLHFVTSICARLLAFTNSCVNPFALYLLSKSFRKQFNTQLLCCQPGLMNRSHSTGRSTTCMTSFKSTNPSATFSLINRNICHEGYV

**Q.** For `NC1=N[C@H](O)[C@H]2[C@H]3O[C@]4(O)O[C@@H]([C@@H](O)[C@@]2(N1)[C@@H]4O)[C@]3(O)CO` [TTX, tetrodotoxin], which “effect of GRP on frequency of sIPSCs in the presence of TTX” value [1] is on record?
**A.** The value was “blocking the effects of the agonist”.

**Q.** picrotoxin was tested. Which “block of sIPSCs” value [2] did it give?
**A.** The value was “completely blocked”.

**Q.** gastrin-releasing peptide [GRP] was tested. Which “effect of GRP on frequency of sIPSCs (in words)” value [3] did it give?
**A.** The value was “failed to increase”.

**Q.** What about the “frequency of sIPSCs” value [3] of the same compound?
**A.** The value was 5.64±0.67 Hz.
